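Method: 48-hour compound exposure of cells in 96-well plates, five concentrations, linear interpolation of endpoints. Definition used: TGI = concentration required for complete inhibition of growth.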
Experiments:
Assay in all cases: NCI-60 cell line screen, 48 h
SF-539 CNS = system: SF-539 CNS
UO-31 renal = system: UO-31 renal
K-562 leukemia = system: K-562 leukemia
BT-549 breast = system: BT-549 breast
OVCAR-5 ovarian = system: OVCAR-5 ovarian
IGROV1 ovarian = system: IGROV1 ovarian
SK-OV-3 ovarian = system: SK-OV-3 ovarian
NCI-H460 lung = system: NCI-H460 lung
SW-620 colon = system: SW-620 colon
COLO 205 colon = system: COLO 205 colon
SK-MEL-28 melanoma = system: SK-MEL-28 melanoma
NCI-H23 lung = system: NCI-H23 lung
T-47D breast = system: T-47D breast
SNB-75 CNS = system: SNB-75 CNS
SK-MEL-5 melanoma = system: SK-MEL-5 melanoma
ACHN renal = system: ACHN renal
RPMI-8226 leukemia = system: RPMI-8226 leukemia
SK-MEL-2 melanoma = system: SK-MEL-2 melanoma
MCF7 breast = system: MCF7 breast
786-0 renal = system: 786-0 renal
SR leukemia = system: SR leukemia
EKVX NSCLC = system: EKVX NSCLC
KM12 colon = system: KM12 colon
HCT-15 colon = system: HCT-15 colon
CCRF-CEM leukemia = system: CCRF-CEM leukemia
UACC-257 melanoma = system: UACC-257 melanoma
NCI-H226 lung = system: NCI-H226 lung
A498 renal = system: A498 renal
U251 CNS = system: U251 CNS
HOP-92 NSCLC = system: HOP-92 NSCLC
MDA-MB-435 = system: MDA-MB-435
CAKI-1 renal = system: CAKI-1 renal
SF-295 CNS = system: SF-295 CNS
SNB-19 CNS = system: SNB-19 CNS
PC-3 prostate = system: PC-3 prostate
OVCAR-3 ovarian = system: OVCAR-3 ovarian
MDA-N = system: MDA-N
UACC-62 melanoma = system: UACC-62 melanoma
OVCAR-8 ovarian = system: OVCAR-8 ovarian
DU-145 prostate = system: DU-145 prostate
SN12C renal = system: SN12C renal
LOX IMVI melanoma = system: LOX IMVI melanoma
NCI/ADR-RES ovarian = system: NCI/ADR-RES ovarian
A549 NSCLC = system: A549 NSCLC
HOP-62 NSCLC = system: HOP-62 NSCLC
MOLT-4 leukemia = system: MOLT-4 leukemia
HCC-2998 colon = system: HCC-2998 colon
M14 melanoma = system: M14 melanoma
HCT-116 colon = system: HCT-116 colon
RXF 393 renal = system: RXF 393 renal
MALME-3M melanoma = system: MALME-3M melanoma
OVCAR-4 ovarian = system: OVCAR-4 ovarian
SF-268 CNS = system: SF-268 CNS
MDA-MB-231 breast = system: MDA-MB-231 breast
NCI-H522 lung = system: NCI-H522 lung
TK-10 renal = system: TK-10 renal

Question: Which TGI (SF-539 CNS) does the source give for `CN1CCN(/C(N)=C(\C#N)C(=O)Nc2ccccc2)CC1` here?
Answer: > 100 µM

Question: What about the TGI (UO-31 renal) of the same compound?
Answer: > 100 µM

Question: What about the TGI (K-562 leukemia) of the same compound?
Answer: > 100 µM

Question: And the TGI (BT-549 breast)?
Answer: > 100 µM

Question: What about the TGI (OVCAR-5 ovarian) of the same compound?
Answer: > 100 µM

Question: What about the TGI (IGROV1 ovarian) of the same compound?
Answer: > 100 µM

Question: What about the TGI (SK-OV-3 ovarian) of the same compound?
Answer: > 100 µM

Question: And the TGI (NCI-H460 lung)?
Answer: > 100 µM

Question: And the TGI (SW-620 colon)?
Answer: > 100 µM

Question: And the TGI (COLO 205 colon)?
Answer: > 100 µM

Question: And the TGI (SK-MEL-28 melanoma)?
Answer: > 100 µM

Question: What about the TGI (NCI-H23 lung) of the same compound?
Answer: > 100 µM

Question: And the TGI (T-47D breast)?
Answer: > 100 µM

Question: What about the TGI (SNB-75 CNS) of the same compound?
Answer: > 100 µM

Question: What about the TGI (SK-MEL-5 melanoma) of the same compound?
Answer: > 100 µM

Question: What about the TGI (ACHN renal) of the same compound?
Answer: > 100 µM

Question: And the TGI (RPMI-8226 leukemia)?
Answer: > 100 µM

Question: What about the TGI (SK-MEL-2 melanoma) of the same compound?
Answer: > 100 µM

Question: What about the TGI (MCF7 breast) of the same compound?
Answer: > 100 µM

Question: What about the TGI (786-0 renal) of the same compound?
Answer: > 100 µM

Question: And the TGI (SR leukemia)?
Answer: > 100 µM

Question: And the TGI (EKVX NSCLC)?
Answer: > 100 µM

Question: What about the TGI (KM12 colon) of the same compound?
Answer: > 100 µM

Question: What about the TGI (HCT-15 colon) of the same compound?
Answer: > 100 µM

Question: What about the TGI (CCRF-CEM leukemia) of the same compound?
Answer: > 100 µM

Question: And the TGI (UACC-257 melanoma)?
Answer: > 100 µM

Question: What about the TGI (NCI-H226 lung) of the same compound?
Answer: > 100 µM

Question: And the TGI (A498 renal)?
Answer: > 100 µM

Question: What about the TGI (U251 CNS) of the same compound?
Answer: > 100 µM

Question: And the TGI (HOP-92 NSCLC)?
Answer: > 100 µM

Question: And the TGI (MDA-MB-435)?
Answer: > 100 µM

Question: And the TGI (CAKI-1 renal)?
Answer: > 100 µM

Question: And the TGI (SF-295 CNS)?
Answer: > 100 µM

Question: And the TGI (SNB-19 CNS)?
Answer: > 100 µM

Question: What about the TGI (PC-3 prostate) of the same compound?
Answer: > 100 µM

Question: What about the TGI (OVCAR-3 ovarian) of the same compound?
Answer: > 100 µM

Question: What about the TGI (MDA-N) of the same compound?
Answer: > 100 µM

Question: And the TGI (UACC-62 melanoma)?
Answer: > 100 µM

Question: And the TGI (OVCAR-8 ovarian)?
Answer: > 100 µM

Question: And the TGI (DU-145 prostate)?
Answer: > 100 µM

Question: What about the TGI (SN12C renal) of the same compound?
Answer: > 100 µM

Question: And the TGI (LOX IMVI melanoma)?
Answer: > 100 µM

Question: What about the TGI (NCI/ADR-RES ovarian) of the same compound?
Answer: > 100 µM

Question: What about the TGI (A549 NSCLC) of the same compound?
Answer: > 100 µM

Question: And the TGI (HOP-62 NSCLC)?
Answer: > 100 µM

Question: What about the TGI (MOLT-4 leukemia) of the same compound?
Answer: > 100 µM

Question: And the TGI (HCC-2998 colon)?
Answer: > 100 µM

Question: And the TGI (M14 melanoma)?
Answer: > 100 µM

Question: And the TGI (HCT-116 colon)?
Answer: > 100 µM

Question: What does the source list for `CC(C)=CCCC1(Sc2ccccc2)C(=O)OCC1C=C(C)C` (stereo not given)?
Answer: TGI (SF-539 CNS): 47.9 µM; TGI (UO-31 renal): > 100 µM; TGI (BT-549 breast): > 100 µM; TGI (OVCAR-5 ovarian): 59 µM; TGI (IGROV1 ovarian): 60.4 µM; TGI (SK-OV-3 ovarian): > 100 µM; TGI (NCI-H460 lung): > 100 µM; TGI (SW-620 colon): > 100 µM; TGI (RXF 393 renal): 45.1 µM; TGI (COLO 205 colon): 50 µM; TGI (SK-MEL-28 melanoma): > 100 µM; TGI (NCI-H23 lung): > 100 µM; TGI (T-47D breast): > 100 µM; TGI (SNB-75 CNS): > 100 µM; TGI (SK-MEL-5 melanoma): 36.7 µM; TGI (ACHN renal): > 100 µM; TGI (MALME-3M melanoma): 40.7 µM; TGI (RPMI-8226 leukemia): 48.1 µM; TGI (SK-MEL-2 melanoma): 55.8 µM; TGI (OVCAR-4 ovarian): > 100 µM; TGI (MCF7 breast): > 100 µM; TGI (786-0 renal): 73.7 µM; TGI (EKVX NSCLC): 79.7 µM; TGI (KM12 colon): > 100 µM; TGI (HCT-15 colon): > 100 µM; TGI (CCRF-CEM leukemia): > 100 µM; TGI (UACC-257 melanoma): 83 µM; TGI (SF-268 CNS): > 100 µM; TGI (NCI-H226 lung): 73.7 µM; TGI (A498 renal): > 100 µM; TGI (U251 CNS): > 100 µM; TGI (MDA-MB-231 breast): > 100 µM; TGI (MDA-MB-435): > 100 µM; TGI (CAKI-1 renal): > 100 µM; TGI (SF-295 CNS): > 100 µM; TGI (SNB-19 CNS): > 100 µM; TGI (PC-3 prostate): > 100 µM; TGI (NCI-H522 lung): 47.4 µM; TGI (TK-10 renal): > 100 µM; TGI (OVCAR-3 ovarian): 42.8 µM; TGI (MDA-N): 66.1 µM; TGI (OVCAR-8 ovarian): > 100 µM; TGI (SN12C renal): 46.1 µM; TGI (LOX IMVI melanoma): 30.1 µM; TGI (NCI/ADR-RES ovarian): > 100 µM; TGI (A549 NSCLC): 78.1 µM; TGI (HOP-62 NSCLC): > 100 µM; TGI (MOLT-4 leukemia): 20.4 µM; TGI (HCC-2998 colon): > 100 µM; TGI (M14 melanoma): 52.1 µM; TGI (HCT-116 colon): 45.8 µM
